Source: patent US8263538B2, “Personal wash cleanser with mild surfactant systems comprising defined alkanoyl compounds and defined fatty acyl isethionate surfactant product” (priority 2010, dated 2012)

System: intrascapular area of the back
Assay: 14-day cumulative irritation Patch Test (occlusive patch, cleansers diluted to 25% w/w)
Details: for Patch test Total irritation score: higher score = more irritating
Protocol: This was randomized, double-blind study. A sufficient number of subjects were recruited to ensure that 25 subjects completed the study. The 14-day cumulative irritation test was conducted as follows. Patching occurred for 14 consecutive days, except on Sundays. Patches applied on Saturday were left in place until Monday, when freshly prepared patches were applied. The designated patch test sites were approximately 2 cm×2 cm on the intrascapular area of the back. Approximately 0.2 mL of the test product was placed onto a Parke-Davis Readi-Bandage® occlusive patch that measured 2 cm×2 cm. Solutions were made by diluting the cleansers to 25% w/w in distilled water. The patch was then applied to the designated test site. The patches were secured with hypoallergenic tape (Scanpor {Allerderm} as needed). A 0.5% sodium dodecyl sulfate (SDS) solution was used as the control in the test.
Each day following application, the patches were removed, the sites evaluated and identical patches reapplied to the same test sites. All evaluations were made using the following 6-point scoring system: • 0=No evidence of any effect • +=Barely perceptible (minimal, faint, uniform or spotty erythema) numerically equivalent to 0.5 • 1=Mild (pink, uniform erythema covering most of the contact site) • 2=Moderate (pink-red, erythema uniform in the entire contact site) • 3=Marked (bright red erythema with/without petechiae or papules) • 4=Severe (deep red erythema with/without vesiculation or weeping)
If a dermal reaction of 3 or 4 occur with any of the test articles at any point during the study, further patch testing on that subject was terminated at the test site involved, and the attained score was assigned to that site for the subsequent scheduled test days.
Cumulative irritation scores, which were the sum of the numerical irritation grades assigned daily during the 14-day test period, were calculated at the end of the study to compare mildness of the test products. […] The data were statistically analyzed using Tukey-Kramer Comparison, and statistical significance was determined at the 95% confidence level.

[1] = first series of Table 1 (0.5% SDS control = 783)
[2] = second series of Table 1 (0.5% SDS control = 912)

For `CCCCCCCCCCCCOS(=O)(=O)[O-].[Na+]` [0.5% SDS Solution, sodium dodecyl sulfate], the “Total irritation score compared to 0.5% SDS solution” value [1] was 100%, the “Patch test Total irritation score” value [1] was 783 and the “Total irritation score compared to 0.5% SDS solution” value [2] was 100%. The “Patch test Total irritation score” value [2] was 912.
